# Reference: PubChem BioAssay (NCI)
#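 The compound was tested at five concentrations on cells cultured in 96-well plates, with a 48-hour exposure period. Abbreviation: GI50, concentration required for 50% inhibition of growth. TGI denotes the concentration required for complete inhibition of growth.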
# Assays:
# Test in all cases: NCI tumour cell line growth inhibition, 48 h
# COLO 205 colon = system: COLO 205 colon
# HL-60(TB) leukemia = system: HL-60(TB) leukemia
# HOP-62 NSCLC = system: HOP-62 NSCLC
# HOP-92 NSCLC = system: HOP-92 NSCLC
# IGROV1 ovarian = system: IGROV1 ovarian
# OVCAR-3 ovarian = system: OVCAR-3 ovarian
# OVCAR-5 ovarian = system: OVCAR-5 ovarian
# RPMI-8226 leukemia = system: RPMI-8226 leukemia
# DU-145 prostate = system: DU-145 prostate
SMILES,TGI (COLO 205 colon),TGI (HL-60(TB) leukemia),TGI (HOP-62 NSCLC),TGI (HOP-92 NSCLC),TGI (IGROV1 ovarian),TGI (OVCAR-3 ovarian),TGI (OVCAR-5 ovarian),TGI (RPMI-8226 leukemia),GI50 (COLO 205 colon),GI50 (DU-145 prostate),TGI (DU-145 prostate),GI50 (HL-60(TB) leukemia),GI50 (HOP-62 NSCLC),GI50 (HOP-92 NSCLC),GI50 (IGROV1 ovarian),GI50 (OVCAR-3 ovarian),GI50 (OVCAR-5 ovarian),GI50 (RPMI-8226 leukemia)
CC(=O)O[C@H]1CC[C@@]2(C)C(=C/C(=N\[N+](=O)[O-])[C@H]3C4CCC([C@H](C)CCCC(C)C)[C@@]4(C)CCC32)C1 (stereo partly specified),> 100 µM,> 100 µM,> 100 µM,> 100 µM,> 100 µM,> 100 µM,> 100 µM,> 100 µM,–,–,–,–,–,–,–,–,–,–
COc1ccc(/C(C#N)=C(/N)SCc2ccccc2Cl)cc1,41.6 µM,63.4 µM,34.1 µM,34.5 µM,> 100 µM,24.3 µM,32.9 µM,> 100 µM,–,–,–,–,–,–,–,–,–,–
COC(=O)c1nc(N)nc(C(=O)OC)c1C(=O)c1ccccc1,–,> 100 µM,–,> 100 µM,> 100 µM,> 100 µM,> 100 µM,> 100 µM,–,–,–,–,–,–,–,–,–,–
O=c1[nH]c2c(c3ccccc13)CCc1ccccc1-2,> 100 µM,–,–,–,> 100 µM,> 100 µM,> 100 µM,> 100 µM,–,–,–,–,–,–,–,–,–,–
NC(=O)N/N=C(\CCC(=O)N(Cc1ccccc1)Cc1ccccc1)CC(=O)c1ccc(F)cc1,> 100 µM,> 100 µM,> 100 µM,–,> 100 µM,> 100 µM,> 100 µM,–,–,–,–,–,–,–,–,–,–,–
[O-][n+]1c2cc(CN3CCOCC3)c(CN3CCOCC3)cc2[n+]([O-])c2c(O)cccc21,11.1 µM,10.9 µM,15.8 µM,10.4 µM,13 µM,13 µM,15.2 µM,12.2 µM,–,–,–,–,–,–,–,–,–,–
Cc1cccc(N=C2NC(=O)C(CC(=O)Nc3ccccc3Cl)S2)c1 (stereo unspecified),–,> 100 µM,–,> 100 µM,> 100 µM,> 100 µM,> 100 µM,> 100 µM,–,–,–,–,–,–,–,–,–,–
COc1cc(/C=C\c2ccc(Cl)cc2)cc(OC)c1OC,> 36.3 µM,2.45 µM,> 100 µM,–,> 100 µM,0.437 µM,> 31.6 µM,46.4 µM,–,–,–,–,–,–,–,–,–,–
COC(=O)C1C(/C=C/c2ccoc2)ON2CCC[C@@H]12 (stereo partly specified),> 100 µM,> 100 µM,> 100 µM,> 100 µM,–,> 100 µM,> 100 µM,–,–,–,–,–,–,–,–,–,–,–
O=C(NC1C=Nc2ccccc2NC1=O)c1ccccc1Cl (stereo unspecified),52.7 µM,54.1 µM,> 100 µM,> 100 µM,> 100 µM,> 100 µM,> 100 µM,–,–,–,–,–,–,–,–,–,–,–
CCc1c2c(nc3ccc(OCc4ccc(B5OC(C)(C)C(C)(C)O5)cc4)cc13)-c1cc3c(c(=O)n1C2)COC(=O)[C@]3(O)CC,> 100 µM,–,–,0.963 µM,> 100 µM,> 100 µM,> 100 µM,> 100 µM,0.126 µM,0.0223 µM,> 49.8 µM,0.0291 µM,< 0.01 µM,0.0378 µM,0.134 µM,0.215 µM,0.215 µM,0.312 µM
COc1ccc(/C=N\O[Si](C)(C)C(C)(C)C)cc1O[Si](C)(C)C(C)(C)C,52.2 µM,38.1 µM,36 µM,37.6 µM,36 µM,31 µM,39 µM,39 µM,–,–,–,–,–,–,–,–,–,–
OC1c2ccccc2C2C(O)c3ccccc3C12 (stereo unspecified),> 100 µM,> 100 µM,> 100 µM,> 100 µM,> 100 µM,> 100 µM,> 100 µM,> 100 µM,–,–,–,–,–,–,–,–,–,–
O=C1NN=C(c2ccc([N+](=O)[O-])cc2)C1n1nc(-c2ccccc2)c2ccccc2c1=O (stereo unspecified),> 100 µM,> 64.4 µM,> 100 µM,> 100 µM,> 100 µM,> 100 µM,> 100 µM,> 70 µM,–,–,–,–,–,–,–,–,–,–
NNC(=S)N/N=C(/C(=O)Nc1ccc([N+](=O)[O-])cc1)c1nc2ccc([N+](=O)[O-])cc2[nH]c1=O,> 100 µM,> 100 µM,–,> 100 µM,> 100 µM,–,> 100 µM,> 100 µM,–,–,–,–,–,–,–,–,–,–
O=C1NN=CN2C(=O)CCC12 (stereo unspecified),> 100 µM,> 100 µM,> 100 µM,> 100 µM,> 100 µM,> 100 µM,–,> 100 µM,–,–,–,–,–,–,–,–,–,–
O=C(CC(=O)C1CCOC1=O)C(=O)Nc1ccc(Cl)cc1 (stereo unspecified),> 100 µM,> 100 µM,> 100 µM,> 100 µM,> 100 µM,> 100 µM,> 100 µM,> 100 µM,–,–,–,–,–,–,–,–,–,–
C=C1C(=O)O[C@H]2[C@H]1CC/C(CNC(=O)/C=C/c1ccc(Cl)cc1Cl)=C\CC[C@@]1(C)O[C@@H]21,2.95 µM,0.542 µM,4.06 µM,2.52 µM,3.41 µM,1.57 µM,4.1 µM,1.54 µM,1.14 µM,0.594 µM,1.89 µM,0.0256 µM,1.74 µM,0.483 µM,1.63 µM,0.434 µM,1.85 µM,0.329 µM
